Experimental findings from patent US10660877B2 (BRISTOL-MYERS SQUIBB COMPANY, priority 2016, dated 2020) are described below.

Like-named read-outs stand apart in the source and are kept apart here. A value given as a limit tells only on which side of the number the result lay.

One test has as its target human TLR7 (Homo sapiens (Human), UniProt Q9NYK1). Description: TLR7 inhibition reporter assay (HEK-Blue cells, SEAP reporter, gardiquimod stimulation). The format is cell-based.
For another test, the target named is human TLR8 (Homo sapiens (Human), UniProt Q9NR97). As to the kind of experiment: TLR8 inhibition reporter assay (HEK-Blue cells, SEAP reporter, R848 stimulation).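 Note: compounds tested from 0.05 nM to 50 µM, 22 h at 37 °C, SEAP measured with HEK-Blue Detection, inhibition relative to agonist plus DMSO versus a known inhibitor.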 For orientation: Reporter assays use an easily measured gene product as a stand-in for the process of interest.
The target of the next test is human TLR9 (Homo sapiens (Human), UniProt Q9NR96). Description: TLR9 inhibition reporter assay (HEK-Blue cells, SEAP reporter, ODN2006 stimulation).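 Note: compounds tested over 0.05 nM to 50 µM, 22 h incubation, inhibition taken as SEAP signal drop from agonist plus DMSO wells toward a known inhibitor control.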
[1] abbreviates: HEK-Blue cells overexpressing human TLR7, gardiquimod 7.5 μM.
The mark [2] stands for this setting: read-out: TLR8 IC50, HEK-Blue cells overexpressing human TLR8, R848 15.9 μM.
The mark [3] stands for this setting: read-out: TLR9 IC50, HEK-Blue cells overexpressing human TLR9, ODN2006 5 nM.

human TLR8, sequence (Q9NR97 27-1041): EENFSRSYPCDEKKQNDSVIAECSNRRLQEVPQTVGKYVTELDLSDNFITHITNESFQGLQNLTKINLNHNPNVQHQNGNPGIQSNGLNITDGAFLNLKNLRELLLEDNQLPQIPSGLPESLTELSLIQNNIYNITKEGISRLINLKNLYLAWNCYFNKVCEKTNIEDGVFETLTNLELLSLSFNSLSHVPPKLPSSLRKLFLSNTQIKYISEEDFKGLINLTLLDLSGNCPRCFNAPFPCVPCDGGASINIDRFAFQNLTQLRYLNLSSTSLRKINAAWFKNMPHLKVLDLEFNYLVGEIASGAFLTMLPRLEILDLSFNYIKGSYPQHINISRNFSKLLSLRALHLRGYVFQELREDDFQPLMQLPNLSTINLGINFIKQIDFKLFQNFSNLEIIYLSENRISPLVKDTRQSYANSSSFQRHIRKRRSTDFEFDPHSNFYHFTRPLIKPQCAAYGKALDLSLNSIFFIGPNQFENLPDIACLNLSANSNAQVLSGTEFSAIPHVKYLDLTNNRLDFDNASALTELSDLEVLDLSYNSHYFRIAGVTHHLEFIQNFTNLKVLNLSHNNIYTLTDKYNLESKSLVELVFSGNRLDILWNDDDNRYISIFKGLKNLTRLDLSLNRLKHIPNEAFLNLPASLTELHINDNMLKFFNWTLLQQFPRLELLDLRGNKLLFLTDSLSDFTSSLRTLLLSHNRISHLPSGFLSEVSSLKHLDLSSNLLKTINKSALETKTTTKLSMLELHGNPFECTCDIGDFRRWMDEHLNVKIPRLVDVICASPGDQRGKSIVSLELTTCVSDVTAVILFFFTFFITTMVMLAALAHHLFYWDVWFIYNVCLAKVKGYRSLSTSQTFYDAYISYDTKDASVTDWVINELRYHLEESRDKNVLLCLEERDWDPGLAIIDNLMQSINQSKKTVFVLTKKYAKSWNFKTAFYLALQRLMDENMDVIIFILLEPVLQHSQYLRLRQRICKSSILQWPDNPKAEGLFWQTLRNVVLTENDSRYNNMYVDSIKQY
human TLR9, sequence (Q9NR96 26-1032): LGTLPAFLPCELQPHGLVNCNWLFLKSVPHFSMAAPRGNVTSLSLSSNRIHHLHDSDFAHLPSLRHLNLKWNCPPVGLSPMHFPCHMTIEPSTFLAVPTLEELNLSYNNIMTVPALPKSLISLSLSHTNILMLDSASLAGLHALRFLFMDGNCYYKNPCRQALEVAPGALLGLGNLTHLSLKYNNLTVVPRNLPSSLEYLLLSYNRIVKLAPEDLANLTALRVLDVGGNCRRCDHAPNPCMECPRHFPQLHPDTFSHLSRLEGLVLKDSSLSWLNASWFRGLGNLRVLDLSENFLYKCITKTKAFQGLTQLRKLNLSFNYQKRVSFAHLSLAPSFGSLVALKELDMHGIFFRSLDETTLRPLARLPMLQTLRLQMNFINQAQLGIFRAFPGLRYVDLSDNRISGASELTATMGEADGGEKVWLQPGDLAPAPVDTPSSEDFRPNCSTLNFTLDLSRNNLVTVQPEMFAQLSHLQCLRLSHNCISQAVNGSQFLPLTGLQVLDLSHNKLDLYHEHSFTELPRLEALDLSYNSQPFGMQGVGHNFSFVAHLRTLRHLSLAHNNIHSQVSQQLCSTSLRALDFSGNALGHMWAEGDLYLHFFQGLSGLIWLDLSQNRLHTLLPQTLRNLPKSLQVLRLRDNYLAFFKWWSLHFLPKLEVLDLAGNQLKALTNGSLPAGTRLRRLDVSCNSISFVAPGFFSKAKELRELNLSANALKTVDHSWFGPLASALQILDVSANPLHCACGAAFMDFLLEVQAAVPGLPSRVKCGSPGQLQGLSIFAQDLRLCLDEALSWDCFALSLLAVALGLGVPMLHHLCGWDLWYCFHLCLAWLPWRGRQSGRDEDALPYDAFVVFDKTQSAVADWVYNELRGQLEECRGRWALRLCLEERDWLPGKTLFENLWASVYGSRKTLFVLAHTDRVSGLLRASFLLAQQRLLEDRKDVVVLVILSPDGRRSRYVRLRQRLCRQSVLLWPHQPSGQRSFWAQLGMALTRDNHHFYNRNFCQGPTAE
human TLR7, sequence (Q9NYK1 27-1049): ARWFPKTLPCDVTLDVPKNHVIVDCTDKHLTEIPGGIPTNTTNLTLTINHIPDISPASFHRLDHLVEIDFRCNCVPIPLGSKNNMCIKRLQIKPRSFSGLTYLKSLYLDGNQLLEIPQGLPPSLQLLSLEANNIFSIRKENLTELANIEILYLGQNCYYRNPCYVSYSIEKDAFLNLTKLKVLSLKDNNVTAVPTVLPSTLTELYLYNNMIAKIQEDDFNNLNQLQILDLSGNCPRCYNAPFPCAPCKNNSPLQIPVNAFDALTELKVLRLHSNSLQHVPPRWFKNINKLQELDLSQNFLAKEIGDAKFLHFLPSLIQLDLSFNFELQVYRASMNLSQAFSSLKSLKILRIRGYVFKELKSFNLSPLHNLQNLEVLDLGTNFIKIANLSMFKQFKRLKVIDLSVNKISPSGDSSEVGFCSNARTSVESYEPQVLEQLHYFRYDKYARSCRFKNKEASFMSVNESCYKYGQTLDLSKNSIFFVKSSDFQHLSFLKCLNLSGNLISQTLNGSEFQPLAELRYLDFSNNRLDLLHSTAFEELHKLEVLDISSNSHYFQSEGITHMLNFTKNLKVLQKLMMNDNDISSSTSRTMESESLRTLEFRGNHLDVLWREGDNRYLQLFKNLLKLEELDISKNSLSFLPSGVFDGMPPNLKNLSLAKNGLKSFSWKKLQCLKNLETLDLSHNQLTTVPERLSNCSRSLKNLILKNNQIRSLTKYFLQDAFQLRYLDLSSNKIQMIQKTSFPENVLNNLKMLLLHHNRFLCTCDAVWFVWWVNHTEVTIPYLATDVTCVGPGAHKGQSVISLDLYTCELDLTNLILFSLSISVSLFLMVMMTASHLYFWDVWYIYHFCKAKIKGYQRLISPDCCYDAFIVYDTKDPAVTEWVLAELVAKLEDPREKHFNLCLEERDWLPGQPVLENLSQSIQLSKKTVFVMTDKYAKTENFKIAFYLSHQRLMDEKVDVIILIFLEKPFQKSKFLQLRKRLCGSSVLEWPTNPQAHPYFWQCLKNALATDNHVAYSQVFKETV

Usually IC50 stands for the concentration needed to halve the response being measured. On to `Cc1cc(-c2[nH]c3ccc(C4CCN(C(=O)[C@@H]5C[C@@H](F)CN5)CC4)cc3c2C(C)C)cc(C)n1` [Example 190, (4-(2-(2,6-dimethylpyridin-4-yl)-3-isopropyl-1H-indol-5-yl)piperidin-1-yl)((2S,4R)-4-fluoropyrrolidin-2-yl)methanone], for which the values for the IC50 against human TLR7 (setting [1]), at human TLR8 (setting [2]) and at human TLR9 (setting [3]) were 1.6 nM, 9.6 nM and 281 nM, respectively.

On to `Cc1cc(-c2[nH]c3ccc(C4CCN(S(=O)(=O)c5ccc(Cl)cc5)CC4)cc3c2C(C)C)ccn1` [Example 542, 5-(1-((4-chlorophenyl)sulfonyl)piperidin-4-yl)-3-isopropyl-2-(2-methylpyridin-4-yl)-1H-indole], for which the IC50 was 1160 nM against human TLR7 (setting [1]), 1480 nM at human TLR8 (setting [2]) and over 50000 nM at human TLR9 (setting [3]).

Turning to `COCCOCC(=O)N1CCC(c2ccc3[nH]c(-c4cc(C)nc(C)c4)c(C(C)C)c3c2)CC1` [Example 114, 1-(4-(2-(2,6-dimethylpyridin-4-yl)-3-isopropyl-1H-indol-5-yl)piperidin-1-yl)-2-(2-methoxyethoxy)ethan-1-one], the IC50 on human TLR7 (setting [1]) came to 3.1 nM; at human TLR8 (setting [2]) it was 82.5 nM; on human TLR9 (setting [3]), 47200 nM.

In the case of `Cc1cc(-c2[nH]c3ccc(C4CCN(Cc5ncon5)CC4)cc3c2C(C)C)cc(C)n1` [Example 463, 3-((4-(2-(2,6-dimethylpyridin-4-yl)-3-isopropyl-1H-indol-5-yl)piperidin-1-yl)methyl)-1,2,4-oxadiazole], the IC50 against human TLR7 (setting [1]) is 8.3 nM; on human TLR8 (setting [2]), 17.7 nM; at human TLR9 (setting [3]), 3360 nM.

As to `Cc1cc(-c2[nH]c3ccc(C4CCN(C(=O)CN5CCCC(F)(F)C5)CC4)cc3c2C(C)C)cc(C)n1` [Example 390, 2-(3,3-difluoropiperidin-1-yl)-1-(4-(2-(2,6-dimethylpyridin-4-yl)-3-isopropyl-1H-indol-5-yl)piperidin-1-yl)ethan-1-one], the figures for the IC50 on human TLR7 (setting [1]), on human TLR8 (setting [2]) and on human TLR9 (setting [3]) were 17.9 nM, 191 nM and 25800 nM, respectively.

On to `Cc1cc(-c2[nH]c3ccc(C4CCN(C5CCN(C(C)C)CC5)CC4)cc3c2C)ccn1` [Example 811, 5-(1′-isopropyl-[1,4′-bipiperidin]-4-yl)-3-methyl-2-(2-methylpyridin-4-yl)-1H-indole], for which the IC50 on human TLR7 (HEK-Blue cells, gardiquimod 7.5 μM) was determined as 117 nM; on human TLR8 (read-out: TLR8 IC50, HEK-Blue cells, R848 15.9 μM) it was 47.2 nM; at human TLR9 (read-out: TLR9 IC50, HEK-Blue cells, ODN2006 5 nM), 23 nM.

Regarding `Cc1cc(-c2[nH]c3ccc(C4CCN(C(=O)CNC56CC7CC(CC(O)(C7)C5)C6)CC4)cc3c2C(C)C)cc(C)n1` [Example 343, 1-(4-(2-(2,6-dimethylpyridin-4-yl)-3-isopropyl-1H-indol-5-yl)piperidin-1-yl)-2-((3-hydroxyadamantan-1-yl)amino)ethan-1-one], the IC50 was found to be 9.8 nM against human TLR7 (setting [1]), 20.3 nM at human TLR8 (setting [2]) and 685 nM at human TLR9 (setting [3]).

For `Cc1cc(-c2[nH]c3ccc(C4CCN(CC(=O)N(C)C)CC4)cc3c2C(C)C)ccn1` [Example 512, 2-(4-(3-isopropyl-2-(2-methylpyridin-4-yl)-1H-indol-5-yl)piperidin-1-yl)-N,N-dimethylacetamide], the figures for the IC50 against human TLR7 (setting [1]), on human TLR8 (setting [2]) and on human TLR9 (setting [3]) were 13 nM, 11.7 nM and 1060 nM, respectively.

In the case of `CCC(C)NCC(=O)N1CCC(c2ccc3[nH]c(-c4cc(C)nc(C)c4)c(C(C)C)c3c2)CC1` (stereo not drawn) [Example 392, 2-(sec-butylamino)-1-(4-(2-(2,6-dimethylpyridin-4-yl)-3-isopropyl-1H-indol-5-yl)piperidin-1-yl)ethan-1-one], the values for the IC50 against human TLR7 (setting [1]), at human TLR8 (setting [2]) and at human TLR9 (setting [3]) were 3.2 nM, 10.4 nM and 253 nM, respectively.

As to `COc1cc(-c2[nH]c3ccc(C4CCN(C5CCNCC5)CC4)cc3c2C(C)C)ccn1` [Example 800, 5-([1,4′-bipiperidin]-4-yl)-3-isopropyl-2-(2-methoxypyridin-4-yl)-1H-indole], the IC50 is 167 nM at human TLR7 (setting [1]), 185 nM at human TLR8 (setting [2]) and 729 nM at human TLR9 (setting [3]).

Take `Cc1cc(-c2[nH]c3ccc(C4CCN(Cc5cn[nH]c5)CC4)cc3c2C(C)C)cc(C)n1` [Example 438, 5-(1-((1H-pyrazol-4-yl)methyl)piperidin-4-yl)-2-(2,6-dimethylpyridin-4-yl)-3-isopropyl-1H-indole]: the IC50 against human TLR7 (setting [1]) worked out at 1.2 nM; on human TLR8 (setting [2]), 3.1 nM; at human TLR9 (setting [3]) it was 69 nM.

Turning to `Cc1cc(-c2[nH]c3ccc(C4CCN(C(=O)CN(C)CC#N)CC4)cc3c2C(C)C)cc(C)n1` [Example 423, 2-((2-(4-(2-(2,6-dimethylpyridin-4-yl)-3-isopropyl-1H-indol-5-yl)piperidin-1-yl)-2-oxoethyl)(methyl)amino)acetonitrile], the IC50 turned out to be 2.8 nM on human TLR7 (setting [1]), 20.8 nM at human TLR8 (setting [2]) and 1330 nM on human TLR9 (setting [3]).

In the case of `Cc1ccc(OC(=O)N2CCC(c3ccc4[nH]c(-c5ccnc(C)c5)c(C(C)C)c4c3)CC2)cc1` [Example 557, p-Tolyl 4-(3-isopropyl-2-(2-methylpyridin-4-yl)-1H-indol-5-yl)piperidine-1-carboxylate], the IC50 against human TLR7 (setting [1]) was determined as 1530 nM; on human TLR8 (setting [2]), 3250 nM; at human TLR9 (setting [3]), 6040 nM.

On to `Cc1cc(-c2[nH]c3ccc(C4CCN(S(=O)(=O)C(C)C)CC4)cc3c2C(C)C)ccn1` [Example 544, 3-isopropyl-5-(1-(isopropylsulfonyl)piperidin-4-yl)-2-(2-methylpyridin-4-yl)-1H-indole], for which the results for the IC50 against human TLR7 (setting [1]), at human TLR8 (setting [2]) and on human TLR9 (setting [3]) were 119 nM, 245 nM and 12200 nM, respectively.

Take `Cc1cc(-c2[nH]c3ccc(C4CCN(CC(F)F)CC4)cc3c2C(C)C)ccn1` [Example 660, 5-(1-(2,2-difluoroethyl)piperidin-4-yl)-3-isopropyl-2-(2-methylpyridin-4-yl)-1H-indole]: the IC50 was 104 nM on human TLR7 (setting [1]), 78.9 nM on human TLR8 (setting [2]) and over 50000 nM at human TLR9 (setting [3]).

With `Cc1cc(-c2[nH]c3ccc(C4CCN(C)CC4)cc3c2CC(F)F)cc(C)n1` [Example 539, 3-(2,2-difluoroethyl)-2-(2,6-dimethylpyridin-4-yl)-5-(1-methylpiperidin-4-yl)-1H-indole], the IC50 turned out to be 23.3 nM on human TLR7 (setting [1]), 81.2 nM on human TLR8 (setting [2]) and 4820 nM at human TLR9 (setting [3]).

In the case of `CCc1c(-c2ccnc(-c3nnc[nH]3)c2)[nH]c2ccc(C3CCNCC3)cc12` [Example 66, 2-(2-(4H-1,2,4-triazol-3-yl)pyridin-4-yl)-3-ethyl-5-(piperidin-4-yl)-1H-indole], the IC50 against human TLR7 (setting [1]) was found to be 1230 nM; on human TLR8 (setting [2]), 159 nM; at human TLR9 (setting [3]) it was 554 nM.

In the case of `Cc1cc(-c2[nH]c3ccc(C4CCN(C(=O)CNC(CO)CC(C)C)CC4)cc3c2C(C)C)cc(C)n1` (stereo not drawn) [Example 382, 1-(4-(2-(2,6-dimethylpyridin-4-yl)-3-isopropyl-1H-indol-5-yl)piperidin-1-yl)-2-((1-hydroxy-4-methylpentan-2-yl)amino)ethan-1-one], the IC50 came out at 7.6 nM on human TLR7 (setting [1]), 44.1 nM on human TLR8 (setting [2]) and 769 nM on human TLR9 (setting [3]).

With `CNC(=O)CN1CCC(c2ccc3[nH]c(-c4cc(C)nc(C5CC5)c4)c(C(C)C)c3c2)CC1` [Example 503, 2-(4-(2-(2-cyclopropyl-6-methylpyridin-4-yl)-3-isopropyl-1H-indol-5-yl)piperidin-1-yl)-N-methylacetamide], the values for the IC50 against human TLR7 (setting [1]), at human TLR8 (setting [2]) and on human TLR9 (setting [3]) were 10.8 nM, 24.1 nM and 1230 nM, respectively.
